Experimental data as given in PMC6934184, “Selective DNA-PKcs inhibition extends the therapeutic index of localized radiotherapy and chemotherapy” (The Journal of Clinical Investigation, 2019).

Biological target: T1, MAP4K4 (HGK) (Homo sapiens, UniProt O95819)
T1 construct: purchased Thermo Fisher Scientific (Life Technologies) SelectScreen
Assay: SelectScreen Z'LYTE
Type: biochemical
How it was run: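 Percent values come from Thermo SelectScreen profiling of NU5455, combining activity and binding assays. CSF1R was run in Z'LYTE format at Km app ATP, and CAMK1 in Adapta format with ATP listed at 10.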

T1 sequence (O95819 whole entry): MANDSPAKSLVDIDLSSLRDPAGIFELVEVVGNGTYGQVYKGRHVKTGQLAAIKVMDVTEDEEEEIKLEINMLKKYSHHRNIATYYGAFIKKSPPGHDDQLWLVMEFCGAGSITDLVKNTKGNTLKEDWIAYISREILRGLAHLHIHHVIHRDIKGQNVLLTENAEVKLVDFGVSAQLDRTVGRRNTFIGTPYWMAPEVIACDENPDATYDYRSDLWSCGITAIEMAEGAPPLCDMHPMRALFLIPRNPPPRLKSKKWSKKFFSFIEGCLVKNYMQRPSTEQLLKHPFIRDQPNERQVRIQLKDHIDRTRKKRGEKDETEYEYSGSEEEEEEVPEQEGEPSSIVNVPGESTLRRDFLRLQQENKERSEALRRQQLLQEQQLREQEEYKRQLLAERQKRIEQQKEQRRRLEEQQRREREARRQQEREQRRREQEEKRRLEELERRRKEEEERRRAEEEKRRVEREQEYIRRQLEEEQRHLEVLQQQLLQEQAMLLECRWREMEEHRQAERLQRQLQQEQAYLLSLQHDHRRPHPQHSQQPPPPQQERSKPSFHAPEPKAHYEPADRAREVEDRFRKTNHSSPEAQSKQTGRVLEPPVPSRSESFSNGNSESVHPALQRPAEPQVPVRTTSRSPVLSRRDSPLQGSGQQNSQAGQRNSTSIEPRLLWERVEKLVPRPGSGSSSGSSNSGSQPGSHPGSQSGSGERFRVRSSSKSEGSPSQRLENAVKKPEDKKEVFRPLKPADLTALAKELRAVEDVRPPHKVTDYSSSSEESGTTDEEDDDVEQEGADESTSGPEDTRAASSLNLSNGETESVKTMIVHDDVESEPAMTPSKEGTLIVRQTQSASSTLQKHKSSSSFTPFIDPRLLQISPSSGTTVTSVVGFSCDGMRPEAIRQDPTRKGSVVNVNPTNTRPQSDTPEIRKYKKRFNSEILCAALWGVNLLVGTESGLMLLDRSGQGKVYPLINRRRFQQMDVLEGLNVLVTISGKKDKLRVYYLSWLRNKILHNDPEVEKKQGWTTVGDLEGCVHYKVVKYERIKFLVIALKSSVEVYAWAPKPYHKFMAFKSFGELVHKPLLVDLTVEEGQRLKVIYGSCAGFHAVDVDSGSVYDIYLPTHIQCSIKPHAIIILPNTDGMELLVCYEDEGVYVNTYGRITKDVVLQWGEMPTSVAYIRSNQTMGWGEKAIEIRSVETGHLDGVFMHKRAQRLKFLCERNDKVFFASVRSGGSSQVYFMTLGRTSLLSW

CN(C(=O)CN1CCOCC1)c1ccc2sc3c(-c4cccc5c(=O)cc(N6CC7CCC(C6)O7)oc45)cccc3c2c1 [NU5455]
inhibition at 1 µM: -5.6%
